Tests used:
Format in all cases: cell-based
human TLR7 = molecular target: T1, human TLR7 (Homo sapiens, UniProt Q9NYK1); assay: TLR7 inhibition reporter assay (HEK-Blue cells, SEAP reporter, gardiquimod stimulation); settings: HEK-Blue cells overexpressing human TLR7, SEAP reporter, gardiquimod 7.5 μM
T1 construct: host or cells: HEK-Blue cells
T1 sequence (Q9NYK1 27-1049): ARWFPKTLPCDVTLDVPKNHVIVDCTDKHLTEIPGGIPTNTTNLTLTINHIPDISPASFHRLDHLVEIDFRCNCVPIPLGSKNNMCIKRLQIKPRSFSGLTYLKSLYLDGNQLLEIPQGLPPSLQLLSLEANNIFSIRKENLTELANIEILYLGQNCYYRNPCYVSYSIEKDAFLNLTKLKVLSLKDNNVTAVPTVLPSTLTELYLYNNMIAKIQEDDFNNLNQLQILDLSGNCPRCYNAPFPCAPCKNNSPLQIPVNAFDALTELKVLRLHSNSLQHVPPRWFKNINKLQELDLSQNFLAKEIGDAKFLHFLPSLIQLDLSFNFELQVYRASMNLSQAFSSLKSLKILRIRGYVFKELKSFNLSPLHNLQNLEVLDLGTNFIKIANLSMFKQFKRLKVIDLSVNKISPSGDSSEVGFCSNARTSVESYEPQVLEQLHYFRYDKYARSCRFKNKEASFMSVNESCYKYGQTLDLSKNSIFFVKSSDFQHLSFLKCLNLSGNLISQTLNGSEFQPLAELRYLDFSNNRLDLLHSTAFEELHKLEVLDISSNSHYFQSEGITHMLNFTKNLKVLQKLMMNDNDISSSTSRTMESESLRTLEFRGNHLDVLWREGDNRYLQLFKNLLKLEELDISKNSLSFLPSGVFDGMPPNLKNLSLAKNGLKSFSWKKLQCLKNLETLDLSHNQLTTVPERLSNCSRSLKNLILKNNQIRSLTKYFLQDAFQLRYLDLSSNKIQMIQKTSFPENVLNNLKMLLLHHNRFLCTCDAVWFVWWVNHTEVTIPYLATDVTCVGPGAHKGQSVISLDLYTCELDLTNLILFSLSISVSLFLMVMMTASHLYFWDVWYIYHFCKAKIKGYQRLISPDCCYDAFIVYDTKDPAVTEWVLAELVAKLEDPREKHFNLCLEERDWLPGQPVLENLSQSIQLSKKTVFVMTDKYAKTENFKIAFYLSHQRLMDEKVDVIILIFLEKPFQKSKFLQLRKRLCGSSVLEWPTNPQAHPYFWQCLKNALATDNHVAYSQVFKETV
Procedure, shortened: (§1)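 HEK-Blue cells with NF-κB/AP-1-driven SEAP reporter, pre-treated 30 min at room temperature with compound (0.05 nM-50 μM). Stimulants: gardiquimod 7.5 μM (TLR7), R848 15.9 μM (TLR8) or ODN2006 5 nM (TLR9). SEAP measured after 22 h at 37° C.; percent inhibition versus agonist-plus-DMSO and known-inhibitor wells.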

human TLR8 = molecular target: T2, human TLR8 (Homo sapiens, UniProt Q9NR97); assay: TLR8 inhibition reporter assay (HEK-Blue cells, SEAP reporter, R848 stimulation); settings: HEK-Blue cells overexpressing human TLR8, SEAP reporter, R848 15.9 μM
T2 construct: host or cells: HEK-Blue cells
T2 sequence (Q9NR97 27-1041): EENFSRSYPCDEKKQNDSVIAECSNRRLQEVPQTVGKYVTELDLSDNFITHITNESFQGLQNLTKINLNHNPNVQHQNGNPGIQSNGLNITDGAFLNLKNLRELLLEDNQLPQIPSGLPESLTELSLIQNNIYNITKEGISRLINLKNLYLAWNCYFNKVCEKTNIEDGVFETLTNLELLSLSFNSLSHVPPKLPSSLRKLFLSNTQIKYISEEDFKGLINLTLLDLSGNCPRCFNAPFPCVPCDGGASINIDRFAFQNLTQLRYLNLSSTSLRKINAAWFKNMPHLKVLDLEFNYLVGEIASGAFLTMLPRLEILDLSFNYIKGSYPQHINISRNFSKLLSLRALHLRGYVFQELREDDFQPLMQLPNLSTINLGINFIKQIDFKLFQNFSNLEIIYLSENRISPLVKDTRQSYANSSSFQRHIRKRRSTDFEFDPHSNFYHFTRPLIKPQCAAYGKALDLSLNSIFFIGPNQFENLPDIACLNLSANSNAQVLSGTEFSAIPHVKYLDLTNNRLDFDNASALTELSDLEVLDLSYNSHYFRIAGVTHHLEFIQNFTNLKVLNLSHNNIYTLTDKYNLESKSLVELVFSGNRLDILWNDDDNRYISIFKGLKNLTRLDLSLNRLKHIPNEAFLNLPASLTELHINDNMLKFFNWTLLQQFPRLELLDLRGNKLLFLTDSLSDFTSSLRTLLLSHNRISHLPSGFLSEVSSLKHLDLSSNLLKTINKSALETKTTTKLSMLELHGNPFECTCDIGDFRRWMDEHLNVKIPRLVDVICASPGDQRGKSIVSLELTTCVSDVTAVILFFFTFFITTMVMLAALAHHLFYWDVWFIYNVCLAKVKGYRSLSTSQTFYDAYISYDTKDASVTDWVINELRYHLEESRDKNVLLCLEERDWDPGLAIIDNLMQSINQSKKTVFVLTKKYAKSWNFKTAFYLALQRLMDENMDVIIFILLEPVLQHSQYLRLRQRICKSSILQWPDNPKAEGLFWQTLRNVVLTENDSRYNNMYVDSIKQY
Procedure, shortened: as §1

human TLR9 = molecular target: T3, human TLR9 (Homo sapiens, UniProt Q9NR96); assay: TLR9 inhibition reporter assay (HEK-Blue cells, SEAP reporter, ODN2006 stimulation); settings: HEK-Blue cells overexpressing human TLR9, SEAP reporter, ODN2006 5 nM
T3 construct: host or cells: HEK-Blue cells
T3 sequence (Q9NR96 26-1032): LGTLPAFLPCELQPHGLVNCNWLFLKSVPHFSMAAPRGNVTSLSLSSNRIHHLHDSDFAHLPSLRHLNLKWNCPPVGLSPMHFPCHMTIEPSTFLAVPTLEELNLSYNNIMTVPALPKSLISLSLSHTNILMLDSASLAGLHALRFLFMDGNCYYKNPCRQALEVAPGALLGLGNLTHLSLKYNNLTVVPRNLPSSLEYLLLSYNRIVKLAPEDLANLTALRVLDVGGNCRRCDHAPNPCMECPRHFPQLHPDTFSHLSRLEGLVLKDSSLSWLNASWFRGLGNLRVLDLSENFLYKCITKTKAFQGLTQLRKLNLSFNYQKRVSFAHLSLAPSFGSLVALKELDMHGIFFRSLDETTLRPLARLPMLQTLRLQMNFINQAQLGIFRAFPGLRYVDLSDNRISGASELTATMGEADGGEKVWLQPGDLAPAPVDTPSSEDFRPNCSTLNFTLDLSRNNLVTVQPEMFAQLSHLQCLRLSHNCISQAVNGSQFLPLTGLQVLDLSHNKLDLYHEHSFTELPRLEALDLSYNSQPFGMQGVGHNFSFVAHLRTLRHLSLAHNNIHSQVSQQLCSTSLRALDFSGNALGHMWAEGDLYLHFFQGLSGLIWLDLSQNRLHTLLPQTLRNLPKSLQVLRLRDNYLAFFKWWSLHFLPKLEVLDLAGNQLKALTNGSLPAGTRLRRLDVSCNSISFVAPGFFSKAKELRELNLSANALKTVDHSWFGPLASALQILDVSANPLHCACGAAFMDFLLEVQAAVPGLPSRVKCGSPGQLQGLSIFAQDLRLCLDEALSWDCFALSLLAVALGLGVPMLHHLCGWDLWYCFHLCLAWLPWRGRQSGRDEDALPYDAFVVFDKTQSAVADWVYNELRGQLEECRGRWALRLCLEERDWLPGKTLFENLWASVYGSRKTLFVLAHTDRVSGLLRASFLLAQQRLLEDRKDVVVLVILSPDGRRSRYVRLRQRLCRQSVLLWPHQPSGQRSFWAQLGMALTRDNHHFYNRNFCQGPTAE
Procedure, shortened: as §1

Cc1c(-c2[nH]c3ccc(C4CN(C(=O)CN(C)C)C4)cc3c2C(C)C)cn(C)c(=O)c1C [Example 484]
IC50 (human TLR7): 0.041 µM
IC50 (human TLR8): 0.0095 µM
IC50 (human TLR9): 16.5 µM

COc1cc(-c2[nH]c3ccc(C4CCCN(CC(N)=O)C4)cc3c2C(C)C)cn2ncnc12 (stereo not drawn) [Example 225]
IC50 (human TLR7): 0.004 µM
IC50 (human TLR8): 0.012 µM
IC50 (human TLR9): 4.73 µM

Cc1c(-c2[nH]c3ccc(C4CN(CCS(C)(=O)=O)C4)cc3c2C(C)C)cn2cnnc2c1C [Example 532]
IC50 (human TLR7): 0.013 µM
IC50 (human TLR8): 0.02 µM
IC50 (human TLR9): 16.9 µM

COc1cc(-c2[nH]c3ccc(C4CCC(NCC(N)=O)CC4)cc3c2C(C)C)cn2ncnc12 (stereo not drawn) [Example 107]
IC50 (human TLR7): 0.00022 µM
IC50 (human TLR8): 0.0015 µM
IC50 (human TLR9): 1.39 µM

COc1cc(-c2[nH]c3ccc(CC4CN(C(C)C)C4)cc3c2C(C)C)cn2ncnc12 [Example 433]
IC50 (human TLR7): 0.002 µM
IC50 (human TLR8): 0.003 µM
IC50 (human TLR9): 2.19 µM

Cc1cc(-c2[nH]c3ccc(C4CCC(NC5CC5)CC4)cc3c2C(C)C)cn2ncnc12 (single isomer, unassigned) [Example 15]
IC50 (human TLR7): 0.004 µM
IC50 (human TLR8): 0.0089 µM
IC50 (human TLR9): 3.59 µM

CC(C)c1c(-c2ccnc3[nH]ncc23)[nH]c2ccc(CCC3CCNCC3)cc12 [Example 421]
IC50 (human TLR7): 0.014 µM
IC50 (human TLR8): 0.004 µM
IC50 (human TLR9): 1.1 µM

CN[C@@H](C)C(=O)N1CCCC(c2ccc3[nH]c(-c4cc(C)nc(C)c4)c(C(C)C)c3c2)C1 (stereo partly drawn) [Example 216]
IC50 (human TLR7): 0.007 µM
IC50 (human TLR8): 0.018 µM
IC50 (human TLR9): 0.303 µM

Cc1cc(-c2[nH]c3ccc(CCN4CCS(=O)(=O)CC4)cc3c2C(C)C)cn(C)c1=O [Example 402]
IC50 (human TLR7): 0.108 µM
IC50 (human TLR8): 0.074 µM
IC50 (human TLR9): > 50 µM

CCN(CC)CC(=O)NC1CCC(c2ccc3[nH]c(-c4cn5ncnc5c(C)c4C)c(C(C)C)c3c2)CC1 (stereo not drawn) [Example 125]
IC50 (human TLR7): 0.011 µM
IC50 (human TLR8): 0.01 µM
IC50 (human TLR9): 6.98 µM

COc1cc(-c2[nH]c3ccc(C4CCC(NC(=O)CN5CCOCC5)CC4)cc3c2C(C)C)cn2ncnc12 (stereo not drawn) [Example 141]
IC50 (human TLR7): 0.002 µM
IC50 (human TLR8): 0.018 µM
IC50 (human TLR9): 4.32 µM

Cc1cc(-c2[nH]c3ccc(C4CCCN(CC(=O)N(C)C)C4)cc3c2C(C)C)cc(C)n1 (stereo not drawn) [Example 233]
IC50 (human TLR7): 0.015 µM
IC50 (human TLR8): 0.056 µM
IC50 (human TLR9): 1.35 µM

Cc1c(-c2[nH]c3ccc(CC4CNC4)cc3c2C(C)C)cn2ncnc2c1C [Example 399, 5-[(azetidin-3-yl)methyl]-2-{7,8-dimethyl-[1,2,4]triazolo[1,5-a]pyridin-6-yl}-3-(propan-2-yl)-1H-indole]
IC50 (human TLR7): 0.011 µM
IC50 (human TLR8): 0.0098 µM
IC50 (human TLR9): 1.96 µM

Cc1c(-c2[nH]c3ccc(C4CNC(C)(C)CO4)cc3c2C(C)C)cn2ncnc2c1C (stereo not drawn) [Example 370]
IC50 (human TLR7): 0.002 µM
IC50 (human TLR8): 0.00035 µM
IC50 (human TLR9): 14.8 µM

COc1cc(-c2[nH]c3ccc(C4CCCN(C(C)C)C4)cc3c2C(C)C)cn2ncnc12 (single isomer, unassigned) [Example 239]
IC50 (human TLR7): 0.002 µM
IC50 (human TLR8): 0.003 µM
IC50 (human TLR9): 1.37 µM

Cc1cc(-c2[nH]c3ccc(C4CCC(C(=O)N5CCN(C)CC5)CC4)cc3c2C(C)C)cn2ncnc12 (single isomer, unassigned) [Example 157]
IC50 (human TLR7): 0.00038 µM
IC50 (human TLR8): 0.0025 µM
IC50 (human TLR9): 6.25 µM

CNC1CCC(c2ccc3[nH]c(-c4cc(OC)c5ncnn5c4)c(C(C)C)c3c2)CC1 (single isomer, unassigned) [Example 145, 4-(3-isopropyl-2-(8-methoxy-[1,2,4]triazolo[1,5-a]pyridin-6-yl)-1H-indol-5-yl)-N-methylcyclohexanamine]
IC50 (human TLR7): 0.00022 µM
IC50 (human TLR8): 0.00073 µM
IC50 (human TLR9): 0.569 µM

Cc1cc(-c2[nH]c3ccc(C4CN5CCC4CC5)cc3c2C(C)C)cn2ncnc12 (stereo not drawn) [Example 365]
IC50 (human TLR7): 0.00022 µM
IC50 (human TLR8): 0.0016 µM
IC50 (human TLR9): 0.745 µM

COc1cc(-c2[nH]c3ccc(C4CCCN(CC(C)(C)O)C4)cc3c2C(C)C)cn2ncnc12 (stereo not drawn) [Example 249]
IC50 (human TLR7): 0.002 µM
IC50 (human TLR8): 0.0012 µM
IC50 (human TLR9): 2.33 µM

Cc1c(-c2[nH]c3ccc(CC4CN(C(=O)CN(C)C)C4)cc3c2C(C)C)cn(C)c(=O)c1C [Example 415]
IC50 (human TLR7): 0.04 µM
IC50 (human TLR8): 0.038 µM
IC50 (human TLR9): 5.02 µM

Cc1cc(-c2[nH]c3ccc(C4CCC(NC5COC5)CC4)cc3c2C(C)C)cn2ncnc12 (stereo not drawn) [Example 57]
IC50 (human TLR7): 0.001 µM
IC50 (human TLR8): 0.0082 µM
IC50 (human TLR9): 6.06 µM

Cc1c(-c2[nH]c3ccc(C4CC5CN(CC(N)=O)CC5C4)cc3c2C(C)C)cn2ncnc2c1C (stereo not drawn) [Example 511]
IC50 (human TLR7): 0.00094 µM
IC50 (human TLR8): 0.0061 µM
IC50 (human TLR9): 12.3 µM

Cc1c(-c2[nH]c3ccc(C4CNCCO4)cc3c2C(C)C)cn2ncnc2c1C (stereo not drawn) [Example 288]
IC50 (human TLR7): 0.00061 µM
IC50 (human TLR8): 0.00052 µM
IC50 (human TLR9): 3.16 µM

CNCC(=O)N1CCOC(c2ccc3[nH]c(-c4cc(OC)c5ncnn5c4)c(C(C)C)c3c2)C1 (stereo not drawn) [Example 339]
IC50 (human TLR7): 0.001 µM
IC50 (human TLR8): 0.006 µM
IC50 (human TLR9): 0.863 µM

Cc1cc(-c2[nH]c3ccc(C4CN(C5COC5)CCO4)cc3c2C(C)C)cc(C)n1 (stereo not drawn) [Example 304]
IC50 (human TLR7): 0.089 µM
IC50 (human TLR8): 0.108 µM
IC50 (human TLR9): > 50 µM
